Assay results reported in patent US20260022143A1, “Cyclic Peptide Inhibitors of IL-23” (JANSSEN PHARMACEUTICA NV, priority 2022, published 2026).
Starred links: 1 amine or outer side, 2 acyl side, 3 side chain; linkers in the order of their positions; H or OH if unused. Positions of bridges follow the written chain, without caps; N, C: chain ends. Non-standard residues stand in square brackets, D forms with d. Residues, ends and D or L forms follow the SMILES beside them. *: point of attachment. Me3N+CH2CH2(OCH2CH2)4CO = C[N+](C)(C)CCOCCOCCOCCOCCC(=O)*; Me3N+(CH2)2O(CH2)2O(CH2)2CO = C[N+](C)(C)CCOCCOCCC(=O)*; Trp(7-Me) = Cc1cccc2c(C[C@H](N)C(=O)O)c[nH]c12; Decanoyl(3,6,9-trioxa) = COCCOCCOCC(=O)*; X1 = CN(CC[C@H](N[*:1])C(=O)[*:2])[*:3]; 2Nal = N[C@@H](Cc1ccc2ccccc2c1)C(=O)O; AEF = NCCOc1ccc(C[C@H](N)C(=O)O)cc1; X24 = C[N+](C)(CCN[*:1])CC(=O)[*:2]; 3Pal = N[C@@H](Cc1cccnc1)C(=O)O; N(CH2CH2)2CF2 = FC1(F)CCN(*)CC1; Lys(Me) = CNCCCC[C@H](N)C(=O)O; X7 = COCCOCCOCCOCCOCCOCCC(=O)*; Pen = CC(C)(S)[C@H](N)C(=O)O; X55 = OC1(C(F)(F)F)CCN(*)CC1; Thp = NC1(C(=O)O)CCOCC1; Aib = CC(C)(N)C(=O)O; Sar = CNCC(=O)O

Legend:
IL-23R = target: T1, IL-23R (Homo sapiens, UniProt Q5VWK5); test: IL23R Reporter Assay; format: cell-based; settings: HEK293 cells containing IL-23R, IL-12RP1 and STAT-inducible firefly luciferase reporter; 10 ng/mL IL-23 (EC90); 5 h at 37° C.; read-out: IL23R Reporter Assay
T1 construct: host or cells: HEK293
T1 sequence (Q5VWK5 24-629): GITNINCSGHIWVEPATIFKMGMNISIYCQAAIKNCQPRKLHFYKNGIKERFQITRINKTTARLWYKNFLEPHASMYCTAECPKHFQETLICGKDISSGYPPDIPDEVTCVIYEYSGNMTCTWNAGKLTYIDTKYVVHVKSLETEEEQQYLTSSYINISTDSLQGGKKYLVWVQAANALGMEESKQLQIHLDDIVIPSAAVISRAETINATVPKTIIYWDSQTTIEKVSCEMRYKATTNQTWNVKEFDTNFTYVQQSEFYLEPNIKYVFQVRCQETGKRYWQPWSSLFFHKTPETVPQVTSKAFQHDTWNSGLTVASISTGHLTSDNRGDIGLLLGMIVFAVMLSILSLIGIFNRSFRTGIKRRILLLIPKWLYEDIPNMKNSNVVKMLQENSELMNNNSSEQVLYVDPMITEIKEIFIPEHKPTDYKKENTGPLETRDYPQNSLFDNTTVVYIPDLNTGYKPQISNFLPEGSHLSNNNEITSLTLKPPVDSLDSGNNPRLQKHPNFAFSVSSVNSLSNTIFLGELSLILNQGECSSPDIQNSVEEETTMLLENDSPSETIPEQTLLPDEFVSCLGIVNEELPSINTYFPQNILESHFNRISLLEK

[1] = Exposed Polar Surface Area (EPSA); format: physicochemical; settings: SFC on Chirex 3014 column; sample 1 mM DMSO stock; read-out: EPSA
Summary of the method: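 SFC retention on a Chirex 3014 (S)-valine/(R)-1-(α-naphthyl)ethylamine column, 35 °C, CO2 with MeOH (20 mM ammonium formate) gradient 5–60% at 20%/min, 14 MPa outlet. Retention times converted to EPSA (Å^2) via linear calibration with 8 standards; samples from 1 mM DMSO stock, run in duplicate.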

Row | IC50 (IL-23R) [nM] | EPSA [1] [A^2] | Compound
1 | 3.7 | 171 | CC(=O)NCCCC[C@@H]1NC(=O)[C@H](Cc2c[nH]c3c(C)cccc23)NC(=O)[C@H]([C@@H](C)O)NC(=O)[C@H](CC(N)=O)NC(=O)[C@@H](NC(C)=O)C(C)(C)SSC(C)(C)[C@@H](C(=O)N[C@@H](Cc2ccc(OCCN)cc2)C(=O)N[C@@H](Cc2ccc3ccccc3c2)C(=O)NC2(C(=O)N[C@@H](CCC(=O)O)C(=O)N[C@@H](CC(N)=O)C(=O)N[C@@H](Cc3cccnc3)C(=O)N(C)CC(=O)N3CCC(O)(C(F)(F)F)CC3)CCOCC2)NC1=O [compound 135] (Ac-[Pen]NT[Trp(7-Me)]K(Ac)[Pen][AEF][2Nal][Thp]EN[3Pal][Sar]-X55; disulfide 1-6 (inferred))
2 | 2.6 | 169 | CC(=O)NCCCC[C@@H]1NC(=O)[C@H](Cc2c[nH]c3c(C)cccc23)NC(=O)[C@H]([C@@H](C)O)NC(=O)[C@H](CC(N)=O)NC(=O)[C@@H](NC(C)=O)C(C)(C)SSC(C)(C)[C@@H](C(=O)N[C@@H](Cc2ccc(OCCN)cc2)C(=O)N[C@@H](Cc2ccc3ccccc3c2)C(=O)NC2(C(=O)N[C@@H](CCC(=O)O)C(=O)N[C@@H](CC(N)=O)C(=O)N[C@@H](Cc3cccnc3)C(=O)N(C)CC(=O)N3CCC(F)(F)CC3)CCOCC2)NC1=O [compound 136] (Ac-[Pen]NT[Trp(7-Me)]K(Ac)[Pen][AEF][2Nal][Thp]EN[3Pal][Sar]-{N(CH2CH2)2CF2}; disulfide 1-6 (inferred))
3 | 3.4 | 150 | Cc1cccc2c(C[C@@H]3NC(=O)[C@H]([C@@H](C)O)NC(=O)[C@H](CC(=O)N(C)C)NC(=O)[C@@H](NC(=O)CCOCCOCC[N+](C)(C)C)C(C)(C)SSC(C)(C)[C@@H](C(=O)N[C@@H](Cc4ccc(OCCN)cc4)C(=O)N[C@@H](Cc4ccc5ccccc5c4)C(=O)NC4(C(=O)N[C@@H](CCC(=O)N(C)C)C(=O)N[C@@H](CC(N)=O)C(=O)N[C@@H](Cc5cccnc5)C(=O)N(C)CC(=O)N(C)C)CCOCC4)NC(=O)[C@H](CCC(=O)N(C)C)NC3=O)c[nH]c12 [compound 139, cPEG3aCO-Pen(3)-N(N(Me)2)-T-7MeW-Q(N(Me)2)-Pen(3)-AEF-2Nal-THP-Q(N(Me)2)-N-3Pya-Sar-CON(Me)2] ({Me3N+(CH2)2O(CH2)2O(CH2)2CO}-[Pen]D(NMe2)T[Trp(7-Me)]E(NMe2)[Pen][AEF][2Nal][Thp]E(NMe2)N[3Pal][Sar]-NMe2; disulfide 1-6)
4 | 5.7 | 140 | COCCOCCOCCOCCOCCOCCC(=O)N(C)CC[C@@H]1NC(=O)[C@H](Cc2c[nH]c3c(C)cccc23)NC(=O)[C@H]([C@@H](C)O)NC(=O)[C@H](CC(=O)N(C)C)NC(=O)[C@@H](NC(C)=O)C(C)(C)SSC(C)(C)[C@@H](C(=O)N[C@@H](Cc2ccc(OCCN)cc2)C(=O)N[C@@H](Cc2ccc3ccccc3c2)C(=O)NC2(C(=O)N[C@@H](CCN(C)C(=O)CCOCCOCCOCCOCCOCCOC)C(=O)N[C@@H](CC(N)=O)C(=O)N[C@@H](Cc3cccnc3)C(=O)N(C)CC(=O)N(C)C)CCOCC2)NC1=O [compound 141, MeCO-Pen(3)-N(N(Me)2)-T-7MeW-Dab(NMeCOmPEG6)-Pen(3)-AEF-2Nal-THP-Dab(NMeCOmPEG6)-N-3Pya-Sar-CON(Me)2] (Ac-[Pen]D(NMe2)T[Trp(7-Me)][X1](X7)[Pen][AEF][2Nal][Thp][X1](X7)N[3Pal][Sar]-NMe2; disulfide 1-6)
5 | 6.6 | 166 | Cc1cccc2c(C[C@@H]3NC(=O)[C@H]([C@@H](C)O)NC(=O)[C@H](CC(=O)N(C)C)NC(=O)[C@@H](NC(=O)CCOCCOCC[N+](C)(C)C)C(C)(C)SSC(C)(C)[C@@H](C(=O)N[C@@H](Cc4ccc(OCCN)cc4)C(=O)N[C@@H](Cc4ccc5ccccc5c4)C(=O)NC4(C(=O)NC(C)(C)C(=O)N[C@@H](CC(N)=O)C(=O)N[C@@H](Cc5cccnc5)C(=O)N(C)CC(=O)N(C)C)CCOCC4)NC(=O)C(C)(C)NC3=O)c[nH]c12 [compound 142, cPEG3aCO-Pen(3)-N(N(Me)2)-T-7MeW-AIB-Pen(3)-AEF-2Nal-THP-AIB-N-3Pya-Sar-CON(Me)2] ({Me3N+(CH2)2O(CH2)2O(CH2)2CO}-[Pen]D(NMe2)T[Trp(7-Me)][Aib][Pen][AEF][2Nal][Thp][Aib]N[3Pal][Sar]-NMe2; disulfide 1-6)
6 | 6.5 | 161 | COCCOCCOCCOCCOCCOCCC(=O)NCC[N+](C)(C)CC(=O)N[C@@H]1C(=O)N[C@@H](CC(=O)N(C)C)C(=O)N[C@@H]([C@@H](C)O)C(=O)N[C@@H](Cc2c[nH]c3c(C)cccc23)C(=O)N[C@@H](CCN(C)C(=O)CCOCCOCCOCCOCC[N+](C)(C)C)C(=O)N[C@H](C(=O)N[C@@H](Cc2ccc(OCCN)cc2)C(=O)N[C@@H](Cc2ccc3ccccc3c2)C(=O)NC2(C(=O)N[C@@H](CCC(=O)O)C(=O)N[C@@H](CC(N)=O)C(=O)N[C@@H](Cc3cccnc3)C(=O)N(C)CC(=O)N(C)C)CCOCC2)C(C)(C)SSC1(C)C [compound 143, mPEG6CO-SP6-Pen(3)-N(N(Me)2)-T-7MeW-Dab(NMecPEG5a)-Pen(3)-AEF-2Nal-THP-E-N-3Pya-Sar-CON(Me)2] (X7-[X24][Pen]D(NMe2)T[Trp(7-Me)][X1](Me3N+CH2CH2(OCH2CH2)4CO)[Pen][AEF][2Nal][Thp]EN[3Pal][Sar]-NMe2; disulfide 2-7 (inferred))
7 | 3.8 | 152 | COCCOCCOCC(=O)NCC[N+](C)(C)CC(=O)N[C@@H]1C(=O)N[C@@H](CC(=O)N(C)C)C(=O)N[C@@H]([C@@H](C)O)C(=O)N[C@@H](Cc2c[nH]c3c(C)cccc23)C(=O)N[C@@H](CCC(=O)N(C)C)C(=O)N[C@H](C(=O)N[C@@H](Cc2ccc(OCCN)cc2)C(=O)N[C@@H](Cc2ccc3ccccc3c2)C(=O)NC2(C(=O)N[C@@H](CCC(=O)N(C)C)C(=O)N[C@@H](CC(N)=O)C(=O)N[C@@H](Cc3cccnc3)C(=O)N(C)CC(N)=O)CCOCC2)C(C)(C)SSC1(C)C [compound 146, mPEG3CO-SP6-Pen(3)-N(N(Me)2)-T-7MeW-Q(N(Me)2)-Pen(3)-AEF-2Nal-THP-Q(N(Me)2)-N-3Pya-Sar-CONH2] ({Decanoyl(3,6,9-trioxa)}-[X24][Pen]D(NMe2)T[Trp(7-Me)]E(NMe2)[Pen][AEF][2Nal][Thp]E(NMe2)N[3Pal][Sar]-NH2; disulfide 2-7)
8 | 3.8 | 156 | Cc1cccc2c(C[C@@H]3NC(=O)[C@H]([C@@H](C)O)NC(=O)[C@H](CC(=O)N(C)C)NC(=O)[C@@H](NC(=O)CCOCCOCC[N+](C)(C)C)C(C)(C)SSC(C)(C)[C@@H](C(=O)N[C@@H](Cc4ccc(OCCN)cc4)C(=O)N[C@@H](Cc4ccc5ccccc5c4)C(=O)NC4(C(=O)N[C@@H](CCC(=O)N(C)C)C(=O)N[C@@H](CC(N)=O)C(=O)N[C@@H](Cc5cccnc5)C(=O)N(C)CC(N)=O)CCOCC4)NC(=O)[C@H](CCC(=O)N(C)C)NC3=O)c[nH]c12 [compound 147, cPEG3aCO-Pen(3)-N(N(Me)2)-T-7MeW-Q(N(Me)2)-Pen(3)-AEF-2Nal-THP-Q(N(Me)2)-N-3Pya-Sar-CONH2] ({Me3N+(CH2)2O(CH2)2O(CH2)2CO}-[Pen]D(NMe2)T[Trp(7-Me)]E(NMe2)[Pen][AEF][2Nal][Thp]E(NMe2)N[3Pal][Sar]-NH2; disulfide 1-6)
9 | 2.6 | 153 | COCCOCCOCC(=O)NCC[N+](C)(C)CC(=O)N[C@@H]1C(=O)N[C@@H](CC(=O)N(C)C)C(=O)N[C@@H]([C@@H](C)O)C(=O)N[C@@H](Cc2c[nH]c3c(C)cccc23)C(=O)N[C@@H](CCCCN(C)C(C)=O)C(=O)N[C@H](C(=O)N[C@@H](Cc2ccc(OCCN)cc2)C(=O)N[C@@H](Cc2ccc3ccccc3c2)C(=O)NC2(C(=O)N[C@@H](CCCCNC(C)=O)C(=O)N[C@@H](CC(N)=O)C(=O)N[C@@H](Cc3cccnc3)C(=O)N(C)CC(N)=O)CCOCC2)C(C)(C)SSC1(C)C [compound 148, mPEG3CO-SP6-Pen(3)-N(N(Me)2)-T-7MeW-K(NMeAc)-Pen(3)-AEF-2Nal-THP-K(Ac)-N-3Pya-Sar-CONH2] ({Decanoyl(3,6,9-trioxa)}-[X24][Pen]D(NMe2)T[Trp(7-Me)][Lys(Me)](Ac)[Pen][AEF][2Nal][Thp]K(Ac)N[3Pal][Sar]-NH2; disulfide 2-7)
10 | 2.1 | 157 | CC(=O)NCCCC[C@H](NC(=O)C1(NC(=O)[C@H](Cc2ccc3ccccc3c2)NC(=O)[C@H](Cc2ccc(OCCN)cc2)NC(=O)[C@H]2NC(=O)[C@H](CCCCN(C)C(C)=O)NC(=O)[C@H](Cc3c[nH]c4c(C)cccc34)NC(=O)[C@H]([C@@H](C)O)NC(=O)[C@H](CC(=O)N(C)C)NC(=O)[C@@H](NC(=O)CCOCCOCC[N+](C)(C)C)C(C)(C)SSC2(C)C)CCOCC1)C(=O)N[C@@H](CC(N)=O)C(=O)N[C@@H](Cc1cccnc1)C(=O)N(C)CC(N)=O [compound 149, cPEG3aCO-Pen(3)-N(N(Me)2)-T-7MeW-K(NMeAc)-Pen(3)-AEF-2Nal-THP-K(Ac)-N-3Pya-Sar-CONH2] ({Me3N+(CH2)2O(CH2)2O(CH2)2CO}-[Pen]D(NMe2)T[Trp(7-Me)][Lys(Me)](Ac)[Pen][AEF][2Nal][Thp]K(Ac)N[3Pal][Sar]-NH2; disulfide 1-6)
